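Results reflect a 48-hour exposure of cells in 96-well plates to compound at five concentrations. GI50 = concentration required for 50% inhibition of growth. TGI: total growth inhibition.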
Each compound was assayed on HL-60(TB) leukemia (assay: growth of human tumour cells (NCI), 48 h).
In the case of `Cc1ccc(NC(=O)CCc2cc(C(C)(C)C)nc(=S)[nH]2)cc1C`, the TGI is reported as > 100 µM. With `Cc1[nH]c2ccccc2c1C(=O)/C=C/c1ccccc1O` the TGI was > 100 µM. In the case of `O=C(Nc1nc(=S)c2c(ncn2CCOC(=O)c2ccccc2)[nH]1)c1ccccc1`, the TGI is reported as > 100 µM. With `COc1ccc(CC2NCCc3c2[nH]c2ccccc32)cc1` (centres undefined) the TGI was 53.5 µM. For `CCOc1ccc(NC(=O)CC#N)cc1`, the TGI was > 100 µM. With `O=C(/C=C/c1cccc2ccccc12)c1ccccc1Cl` the TGI was 19.4 µM. `Cc1ccc(/C=C/C(=O)c2sc(-c3nc(C)c(C(=O)/C=C/c4ccc(C)cc4)s3)nc2C)cc1` was tested, and the TGI was > 100 µM. Compound `O=C1/C(=C/c2ccc(Cl)cc2)CCC1CCN1CCOCC1` (centres undefined) has a TGI of 85.2 µM. Work on `CCC[CH2][Sn]([Cl])([CH2]CCC)[CH2]CCC` yielded a GI50 of 0.121 µM and a TGI of 0.351 µM. For `O=c1ccn([C@H]2CSC[C@@H](CO)C2)c(=O)[nH]1`, the TGI was > 100 µM. For `C1CN2CCN3CCN4CCN1[P+]243`, the TGI was > 100 µM.

What follows are compounds tested on EKVX NSCLC (assay: growth of human tumour cells (NCI), 48 h).
With `CN(C)CC[PH+](c1ccccc1)c1ccccc1.CN(C)CC[PH+](c1ccccc1)c1ccccc1.[Cl-].[Pd+2]` the GI50 was > 100 µM and the TGI was > 100 µM. Work on `COc1cc(NCc2ccc3nc(N)nc(N)c3c2C)cc(OC)c1OC` (tested in a mixture with another compound) yielded a TGI of 26.6 µM. In the case of `O=C(c1ccccc1)c1cc2ccccc2o1`, the GI50 is reported as 32.6 µM and the TGI is reported as > 100 µM. In the case of `O=C(Nc1ccncc1)C(=O)c1cn(S(=O)(=O)c2ccc(F)cc2)c2ccccc12`, the GI50 is reported as 3.9 µM and the TGI is reported as > 100 µM. For `C=C(C)[C@@H]1CC[C@]2(C)[C@H](CC=C3[C@@H]4CC(C)(C)CC[C@]4(C(N)=O)CC[C@]32C)[C@@]1(C)CCC#N`, the GI50 was 3.6 µM and the TGI was > 100 µM. In the case of `O=C(c1ccccc1Br)C(F)(F)F`, the TGI is reported as > 100 µM. For `CO/N=C(\COc1ccc2c(c1)oc(=O)c1cc(OC)ccc12)c1ccc(OC)cc1`, the GI50 was > 100 µM and the TGI was > 100 µM. In the case of `COc1ccc(NC(=O)/C(Cc2cc(=O)oc3cc(O)ccc23)=N\NC(C)(C)C)c(OC)c1`, the TGI is reported as > 100 µM. In the case of `O=C1/C(=C/c2ccc3c(c2)OCO3)SC2C=Nc3ccccc3N12` (centres undefined), the TGI is reported as > 100 µM. With `CCOc1ccc(NC(=O)C(=O)CC(=O)c2c(C)n([O-])c3ccccc3[n+]2=O)cc1` the TGI was > 100 µM. In the case of `Clc1ccc2[nH]cc(-c3nnnn3-c3ccccc3)c2c1`, the GI50 is reported as 28.3 µM and the TGI is reported as > 100 µM. For `Cc1cc(Cl)ccc1NC(=O)C(=O)Cc1nc2ccccc2o1`, the TGI was > 100 µM. With `OCC1OC(c2nc(C3=NCCCN3)cs2)C(O)C1O` (centres undefined) the TGI was > 100 µM. Compound `O=C1C=CC(=O)c2cc3cc(CBr)ccc3cc21` has a GI50 of 24.1 µM and a TGI of 55.7 µM. `CCC(C)COC(=O)c1ccc(N=Cc2ccc(C=Nc3ccc(C(=O)OCC(C)CC)cc3)cc2)cc1` (centres undefined) was tested, and the TGI was > 100 µM. For `Cc1cc(N(CCC#N)CCC#N)ccc1N=Nc1ccc(C(=O)O)cc1`, the TGI was > 100 µM. With `CN(C)CC1CCCC/C1=N/OC(=O)c1ccc(Cl)cc1` (centres undefined) the TGI was > 100 µM. `N#CC(C(=O)C(=O)C(C#N)c1ccc(Br)cc1)c1ccc(Br)cc1` (centres undefined) was tested, and the TGI was 24.6 µM. For `COc1cccc(C2=NC(C(C)C)CO2)c1` (centres undefined), the TGI was > 100 µM. For `CCOC(=O)Nc1ccc(-c2nc(-c3cccc(OCCN4CCOCC4)c3)c(-c3ccnc(Br)c3)[nH]2)cc1`, the GI50 was 3.2 µM and the TGI was > 100 µM. In the case of `CCCc1nc(NC#N)nc(C(=O)Nc2ccccc2)c1CC`, the TGI is reported as > 100 µM. In the case of `CCCN1C(=O)N(CCC)C2C1NC(=S)N2/N=C/C=C/c1ccccc1OC` (centres undefined), the GI50 is reported as 2.22 µM and the TGI is reported as > 100 µM. `O=C(CCc1n[nH]c(=S)o1)Nc1ccccc1C(F)(F)F` was tested, and the TGI was > 100 µM. Work on `COc1cc2c(cc1OCCCNC(=O)c1cccc3c(=O)c4ccccc4[nH]c13)N=C[C@@H]1CCCN1C2=O` yielded a GI50 of 0.0166 µM and a TGI of 0.14 µM. For `Cc1ccc(NC(=O)CCc2cc(C(C)(C)C)nc(=S)[nH]2)cc1C`, the TGI was > 100 µM. `Cc1[nH]c2ccccc2c1C(=O)/C=C/c1ccccc1O` was tested, and the TGI was > 100 µM. In the case of `O=C(Nc1nc(=S)c2c(ncn2CCOC(=O)c2ccccc2)[nH]1)c1ccccc1`, the TGI is reported as > 100 µM. With `COc1ccc(CC2NCCc3c2[nH]c2ccccc32)cc1` (centres undefined) the TGI was > 100 µM. `CCOc1ccc(NC(=O)CC#N)cc1` was tested, and the TGI was > 100 µM. Work on `O=C(/C=C/c1cccc2ccccc12)c1ccccc1Cl` yielded a TGI of 28.6 µM. In the case of `COc1ccc2c(c1)C(=O)c1c-2c(N2CCN(C(=O)CNCCNCCO)CC2)nc2ccccc12`, the GI50 is reported as 7.15 µM and the TGI is reported as 19.7 µM.
